Patent US11000033B2, “Ketone or oxime compound, and herbicide” (NISSAN CHEMICAL CORPORATION, priority 2014, dated 2021)

How the values were obtained:
Type in all cases: in vivo
[1] = system: Echinochloa oryzacola Vasing.; assay: Test Example 1: herbicidal activity, application before weed generation in submerged conditions (symbol A); settings: application herbicide amount 320 g/ha
How it was run: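 Scores run 0 to 5 by herbicidal ratio, with 5 meaning 90% or more and 0 meaning 5% or lower, read 3 weeks after treatment. Compound was applied as a diluted emulsion to the water surface of submerged alluvial-soil pots on the day weed seeds were sown.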

transplanted rice plant = assay: Test Example 1: effect on crop, application before weed generation in submerged conditions (symbol a); settings: application herbicide amount 320 g/ha
How it was run: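 Alluvial soil pots flooded to 4 cm water, sown with Echinochloa oryzacola, Scirpus juncoides and Monochoria vaginalis, then transplanted with 2.5 leaf stage rice seedlings; pre-emergence application. Greenhouse 25° C. to 30° C.; scored 0–5 by herbicidal ratio 3 weeks after application.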

Monochoria vaginalis = assay: Test Example 2: herbicidal activity, application during weed generation in submerged conditions (symbol C); settings: Table 23; application herbicide amount 320 g/ha; grade 0-5 by criteria of Test Example 1
How it was run: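 Flooded-soil post-emergence test: emulsion of compound, water-diluted to target rate, applied to paddy water surface at 1–2 leaf stage of mixed-sown weeds (alluvial soil, 4 cm water, 25–30° C. greenhouse); visual rating 3 weeks after application.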

Digitaria ciliaris = assay: Test Example 4: herbicidal effect by soil treatment (symbol F); settings: application herbicide amount 320 g/ha
How it was run: (§1)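 Seeds were sown in sterilized diluvial soil, covered with about 1.5 cm of soil, and the soil surface was sprayed with a water-diluted emulsion of the compound at a predetermined rate. Plants grew in a greenhouse at 25° C. to 30° C.; effects were scored visually 3 weeks after application.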

[2] = system: Echinochloa crus-galli var. crus-galli; assay: Test Example 4: herbicidal effect by soil treatment (symbol H); settings: application herbicide amount 320 g/ha
How it was run: as §1

Avena fatua = assay: Test Example 4: herbicidal effect by soil treatment (symbol I); settings: application herbicide amount 320 g/ha
How it was run: as §1

Lolium multiflorum Lam. [3] = assay: Test Example 4: herbicidal effect by soil treatment (symbol K); settings: application herbicide amount 320 g/ha
How it was run: as §1

Apera spica-venti [4] = assay: Test Example 4: herbicidal effect by soil treatment (symbol L); settings: application herbicide amount 320 g/ha
How it was run: as §1

Chenopodium album = assay: Test Example 4: herbicidal effect by soil treatment (symbol O); settings: application herbicide amount 320 g/ha
How it was run: as §1

Stellaria media [5] = assay: Test Example 4: herbicidal effect by soil treatment (symbol P); settings: application herbicide amount 320 g/ha
How it was run: as §1

Veronica persica = assay: Test Example 4: herbicidal effect by soil treatment (symbol R); settings: application herbicide amount 320 g/ha
How it was run: as §1

soybean = assay: Test Example 4: effect on crop by soil treatment (symbol d); settings: application herbicide amount 320 g/ha
How it was run: (§2)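 Steps: fill box with sterilized diluvial soil; sow seed spot-like; cover with ~1.5 cm soil; grow in greenhouse (25° C. to 30° C.).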

rice = assay: Test Example 4: effect on crop by soil treatment (symbol b); settings: application herbicide amount 320 g/ha
How it was run: as §2

rapeseed = assay: Test Example 4: effect on crop by soil treatment (symbol g); settings: application herbicide amount 320 g/ha
How it was run: as §2

[6] = system: Echinochloa crus-galli var. crus-galli; assay: Test Example 5: herbicidal effect by foliage application, plastic box (symbol H); settings: 320 g/ha, 3 weeks after application
How it was run: (§3)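 Visual herbicidal score, taken three weeks post-application, of seedlings sprayed on the foliage with water-diluted emulsion at a predetermined amount; plants were 14 days old, greenhouse-raised at 25° C. to 30° C.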

Lolium multiflorum Lam. [7] = assay: Test Example 5: herbicidal effect by foliage application, plastic box (symbol K); settings: 320 g/ha, 3 weeks after application
How it was run: as §3

Apera spica-venti [8] = assay: Test Example 5: herbicidal effect by foliage application, plastic box (symbol L); settings: 320 g/ha, 3 weeks after application
How it was run: as §3

Stellaria media [9] = assay: Test Example 5: herbicidal effect by foliage application, plastic box (symbol P); settings: 320 g/ha, 3 weeks after application
How it was run: as §3

Structure (SMILES)	Herbicidal effect grade, A: Echinochloa oryzacola Vasing. [1]	Effect grade on crop, a: transplanted rice plant (transplanted rice plant)	Herbicidal effect grade, C: Monochoria vaginalis (Monochoria vaginalis)	F: Digitaria ciliaris, herbicidal effect grade (Digitaria ciliaris)	H: Echinochloa crus-galli var. crus-galli, herbicidal effect grade [2]	I: Avena fatua, herbicidal effect grade (Avena fatua)	K: Lolium multiflorum Lam., herbicidal effect grade (Lolium multiflorum Lam. [3])	L: Apera spica-venti, herbicidal effect grade (Apera spica-venti [4])	O: Chenopodium album, herbicidal effect grade (Chenopodium album)	P: Stellaria media, herbicidal effect grade (Stellaria media [5])	R: Veronica persica, herbicidal effect grade (Veronica persica)	d: soybean, effect on crop grade (soybean)	b: directly sowed rice plant, effect on crop grade (rice)	g: rapeseed, effect on crop grade (rapeseed)	H: Echinochloa crus-galli var. crus-galli, herbicidal effect grade [6]	K: Lolium multiflorum Lam., herbicidal effect grade (Lolium multiflorum Lam. [7])	L: Apera spica-venti, herbicidal effect grade (Apera spica-venti [8])	P: Stellaria media, herbicidal effect grade (Stellaria media [9])
CON=C(C)CC1CC(O)=C(c2c(C)cc(-c3ccc(C(F)(F)F)cc3)cc2C)C1=O (mixture of isomers) [6-016]	5 (Herbicidal ratio of 90% or more (almost completely withered))	4 (Herbicidal ratio of 70% or higher and lower than 90%)	0 (Herbicidal ratio of 5% or lower (almost no effect))	5 (Herbicidal ratio of 90% or more (almost completely withered))	4 (Herbicidal ratio of 70% or higher and lower than 90%)	0 (Herbicidal ratio of 5% or lower (almost no effect))	0 (Herbicidal ratio of 5% or lower (almost no effect))	5 (Herbicidal ratio of 90% or more (almost completely withered))	0 (Herbicidal ratio of 5% or lower (almost no effect))	0 (Herbicidal ratio of 5% or lower (almost no effect))	0 (Herbicidal ratio of 5% or lower (almost no effect))	0 (Herbicidal ratio of 5% or lower (almost no effect))	2 (Herbicidal ratio of 20% or higher and lower than 40%)	0 (Herbicidal ratio of 5% or lower (almost no effect))	5 (Herbicidal ratio of 90% or more (almost completely withered))	5 (Herbicidal ratio of 90% or more (almost completely withered))	5 (Herbicidal ratio of 90% or more (almost completely withered))	0 (Herbicidal ratio of 5% or lower (almost no effect))
CCOC(=O)C(C(=O)C(F)(F)F)C1CC(O)=C(c2c(C)cc(C)cc2C)C1=O (stereo not drawn) [2-010]	0 (Herbicidal ratio of 5% or lower (almost no effect))	0 (Herbicidal ratio of 5% or lower (almost no effect))	0 (Herbicidal ratio of 5% or lower (almost no effect))	0 (Herbicidal ratio of 5% or lower (almost no effect))	0 (Herbicidal ratio of 5% or lower (almost no effect))	0 (Herbicidal ratio of 5% or lower (almost no effect))	0 (Herbicidal ratio of 5% or lower (almost no effect))	0 (Herbicidal ratio of 5% or lower (almost no effect))	0 (Herbicidal ratio of 5% or lower (almost no effect))	0 (Herbicidal ratio of 5% or lower (almost no effect))	0 (Herbicidal ratio of 5% or lower (almost no effect))	0 (Herbicidal ratio of 5% or lower (almost no effect))	0 (Herbicidal ratio of 5% or lower (almost no effect))	0 (Herbicidal ratio of 5% or lower (almost no effect))	0 (Herbicidal ratio of 5% or lower (almost no effect))	0 (Herbicidal ratio of 5% or lower (almost no effect))	0 (Herbicidal ratio of 5% or lower (almost no effect))	0 (Herbicidal ratio of 5% or lower (almost no effect))
CON=C(C)CC1CC(O)=C(c2c(C)cc(-c3ccc(C)cc3)cc2C)C1=O (mixture of isomers) [6-018]	5 (Herbicidal ratio of 90% or more (almost completely withered))	5 (Herbicidal ratio of 90% or more (almost completely withered))	3 (Herbicidal ratio of 40% or higher and lower than 70%)	5 (Herbicidal ratio of 90% or more (almost completely withered))	5 (Herbicidal ratio of 90% or more (almost completely withered))	0 (Herbicidal ratio of 5% or lower (almost no effect))	5 (Herbicidal ratio of 90% or more (almost completely withered))	5 (Herbicidal ratio of 90% or more (almost completely withered))	0 (Herbicidal ratio of 5% or lower (almost no effect))	0 (Herbicidal ratio of 5% or lower (almost no effect))	0 (Herbicidal ratio of 5% or lower (almost no effect))	0 (Herbicidal ratio of 5% or lower (almost no effect))	3 (Herbicidal ratio of 40% or higher and lower than 70%)	0 (Herbicidal ratio of 5% or lower (almost no effect))	5 (Herbicidal ratio of 90% or more (almost completely withered))	5 (Herbicidal ratio of 90% or more (almost completely withered))	5 (Herbicidal ratio of 90% or more (almost completely withered))	3 (Herbicidal ratio of 40% or higher and lower than 70%)
CON=C(C)CC1CC(O)=C(c2c(C)cc(-c3ccc(OC)cc3)cc2C)C1=O (mixture of isomers) [6-017]	5 (Herbicidal ratio of 90% or more (almost completely withered))	5 (Herbicidal ratio of 90% or more (almost completely withered))	0 (Herbicidal ratio of 5% or lower (almost no effect))	5 (Herbicidal ratio of 90% or more (almost completely withered))	3 (Herbicidal ratio of 40% or higher and lower than 70%)	0 (Herbicidal ratio of 5% or lower (almost no effect))	4 (Herbicidal ratio of 70% or higher and lower than 90%)	5 (Herbicidal ratio of 90% or more (almost completely withered))	0 (Herbicidal ratio of 5% or lower (almost no effect))	0 (Herbicidal ratio of 5% or lower (almost no effect))	0 (Herbicidal ratio of 5% or lower (almost no effect))	0 (Herbicidal ratio of 5% or lower (almost no effect))	3 (Herbicidal ratio of 40% or higher and lower than 70%)	0 (Herbicidal ratio of 5% or lower (almost no effect))	5 (Herbicidal ratio of 90% or more (almost completely withered))	5 (Herbicidal ratio of 90% or more (almost completely withered))	5 (Herbicidal ratio of 90% or more (almost completely withered))	1 (Herbicidal ratio of 5% or higher and lower than 20%)
